US10463710B2, “Short synthetic peptide for the treatment and/or prophylaxis of autoimmune and inflammatory disorders” (MacKay Memorial Hospital, priority 2015, dated 2019)

Test system: HOCl-induced skin fibrosis
Experiment: Mouse model of HOCl-induced systemic sclerosis (skin fibrosis)
Assay type: in vivo, BALB/c mice
Description: Induction of SSc have been successfully established by subcutaneously injection with prooxidative agents (e.g., hypochlorous acid, HOCl) in BALB/c mice every day for 6 weeks (Servettaz A et al., J Immuno. 2009; 182: 5855).
To produce HOCl, 166 μl of NaClO solution (2.6% as active chlorine) was added to 11.1 ml of KH2PO4 solution (100 mM; pH 7.2). The concentration of HOCl was determined by spectrophotometry at 292 nm (molar absorption coefficient 350 M^−1 cm^−1). Female BALB/c mice (6 weeks old) were randomly distributed into experimental and control groups (n=6 per group). A total of 100 μl of HOCl solution mixed with 7-mer vehicle or 7-mer (final concentration 0.2 mM) was injected subcutaneously into the shaved back of the mice, using a 27-gauge needle, every day for 6 wks. Subcutaneous injection of phosphate-buffered saline (PBS) was served as normal control. Mice were euthanized and their skins were harvested, fixed overnight in 4% paraformaldehyde and embedded in paraffin. […]
Approximately 20% skin homogenate was used to determine the levels of soluble collagen. The collagen levels were quantified using a Sircol™ soluble collagen assay (Biocolor Ltd., Newtownabbey) according to the manufacturer's protocols. […] Relative absorbance was measured at 540 nm. […]

## CC(=O)N[C@@H](CC(=O)O)C(=O)N[C@@H](CC(C)C)C(=O)N[C@@H](Cc1ccc(O)cc1)C(=O)N[C@@H](CCCNC(=N)N)C(=O)N[C@H](C(=O)N[C@@H](CCCNC(=N)N)C(=O)N[C@@H](CO)C(N)=O)C(C)C [7-mer, NH2-Asp-Leu-Tyr-Arg-Val-Arg-Ser-COOH]
7-mer 0.2 mM s.c. with HOCl daily for 6 wks, vs HOCl/vehicle, FIG. 3A
  level of dermal collagen (Masson's trichrome): significant decrease
7-mer treated SSc mice, HOCl-treated SSc mice 169.9±7.75, FIG. 3B
  collagen content of skin: 99.0±5.43 μg collagen/mg skin
